Experiment [1] concerns Mycobacterium tuberculosis. Put plainly: Inhibition against Mycobacterium tuberculosis at 6.25 ug/mL. Format: functional.
Experiment [2] concerns Mycobacterium tuberculosis. Briefly: Inhibition against Mycobacterium tuberculosis. Format: functional.

Converted amounts (≈) assume the structure as drawn.

Broadly, the inhibition is the share of the control response that was lost under treatment. Read a low inhibition as little suppression. What is called MIC is the lowest concentration found to suppress growth. Low readings indicate inhibition by little substance, high ones a need for much substance. In experiment [1], `CC(=O)OC1CC(c2ccc(F)cc2)N(c2ccccc2)O1` (racemic) gave an inhibition at 6.25 µg/mL of 78%. In experiment [2], this compound came in with an MIC of 6.25 µg/mL (≈ 20.7 µM).

These data come from ChEMBL document CHEMBL1133905, “Novel lipase-catalysed enantioselective deacetylation of (+/-)-5-acetoxy-3-(4-fluorophenyl)-2-phenylisoxazolidine” (2001).
